Test results reported in ChEMBL document CHEMBL5608163, “Structure modification of anoplin for fighting resistant bacteria” (Eur J Med Chem, 2024).
Values after ≈ are worked out from the molar mass of the structure shown. Bridge positions count the residues as written; N and C are the ends. Square brackets hold non-standard residues; d marks the D form. Peptide text beside a SMILES is read from it. I, II: the chains in the order shown. * marks the point of attachment. ξ: configuration not given here. Lauroyl = CCCCCCCCCCCC(=O)*; Decanoyl = CCCCCCCCCC(=O)*; Octanoyl = CCCCCCCC(=O)*; Hexanoyl = CCCCCC(=O)*; ξK = NCCCCC(N)C(=O)O; Butyryl = CCCC(=O)*

Key:
[1] = system: Bacillus subtilis; assay: Antibacterial activity against Bacillus subtilis ATCC 23857 assessed as reduction in bacterial cell growth incubated for 16 to 24 hrs by CLSI-protocol based Mueller-Hinton Broth micro-dilution method; format: functional; conditions: time 16-24 hrs
[2] = system: Pseudomonas aeruginosa; assay: Antibacterial activity against Pseudomonas aeruginosa ATCC 27853 assessed as reduction in bacterial cell growth incubated for 16 to 24 hrs by CLSI-protocol based Mueller-Hinton Broth micro-dilution method; format: functional; conditions: time 16-24 hrs
[3] = system: Staphylococcus aureus; assay: Antibacterial activity against Staphylococcus aureus ATCC 25923 assessed as reduction in bacterial cell growth incubated for 16 to 24 hrs by CLSI-protocol based Mueller-Hinton Broth micro-dilution method; format: functional; conditions: time 16-24 hrs
[4] = system: Escherichia coli; assay: Antibacterial activity against Escherichia coli ATCC 25922 assessed as reduction in bacterial cell growth incubated for 16 to 24 hrs by CLSI-protocol based Mueller-Hinton Broth micro-dilution method; format: functional; conditions: time 16-24 hrs
[5] = system: Klebsiella pneumoniae; assay: Antibacterial activity against Klebsiella pneumoniae ATCC 700603 assessed as reduction in bacterial cell growth incubated for 16 to 24 hrs by CLSI-protocol based Mueller-Hinton Broth micro-dilution method; format: functional; conditions: time 16-24 hrs
[6] = system: Erythrocyte; assay: Hemolytic activity in human erythrocyte incubated for 70 mins by absorbance based assay; format: toxicity, cell-based; conditions: 1.167 h

Row | Compound | MIC [1] [µM] | MIC [2] [µM] | MIC [3] [µM] | MIC [4] [µM] | MIC [5] [µM] | HC10 [6] [µM]
1 | CCCC(=O)NCC(=O)N[C@@H](CC(C)C)C(=O)N[C@@H](CC(C)C)C(=O)N[C@@H](CCCCN)C(=O)N[C@@H](CCCNC(=N)N)C(=O)N[C@H](C(=O)N[C@@H](CCCCN)C(=O)N[C@H](C(=O)N[C@@H](CC(C)C)C(=O)N[C@@H](CC(C)C)C(N)=O)[C@@H](C)O)[C@@H](C)CC (Butyryl-GLLKRIKTLL-NH2) | 256 (≈ 313 µg/mL) | 64 (≈ 78.3 µg/mL) | 256 (≈ 313 µg/mL) | 256 (≈ 313 µg/mL) | 256 (≈ 313 µg/mL) | > 256
2 | CCCCCCCCCC(=O)NCC(=O)N[C@@H](CC(C)C)C(=O)N[C@@H](CC(C)C)C(=O)N[C@@H](CCCCN)C(=O)N[C@@H](CCCNC(=N)N)C(=O)N[C@H](C(=O)N[C@@H](CCCCN)C(=O)N[C@H](C(=O)N[C@@H](CC(C)C)C(=O)N[C@@H](CC(C)C)C(N)=O)[C@@H](C)O)[C@@H](C)CC (Decanoyl-GLLKRIKTLL-NH2) | 8 (≈ 10.5 µg/mL) | 8 (≈ 10.5 µg/mL) | 8 (≈ 10.5 µg/mL) | 16 (≈ 20.9 µg/mL) | 16 (≈ 20.9 µg/mL) | 16.36
3 | CCCCCC(=O)NCC(=O)N[C@@H](CC(C)C)C(=O)N[C@@H](CC(C)C)C(=O)N[C@@H](CCCCN)C(=O)N[C@@H](CCCNC(=N)N)C(=O)N[C@H](C(=O)N[C@@H](CCCCN)C(=O)N[C@H](C(=O)N[C@@H](CC(C)C)C(=O)N[C@@H](CC(C)C)C(N)=O)[C@@H](C)O)[C@@H](C)CC (Hexanoyl-GLLKRIKTLL-NH2) | 16 (≈ 20 µg/mL) | 16 (≈ 20 µg/mL) | 64 (≈ 80.1 µg/mL) | 128 (≈ 160 µg/mL) | 128 (≈ 160 µg/mL) | > 256
4 | CCCC(=O)NCC(=O)N[C@@H](CC(C)C)C(=O)N[C@@H](CC(C)C)C(=O)N[C@@H](CCCCN)C(=O)N[C@@H](CCCNC(=N)N)C(=O)N[C@H](C(=O)N[C@@H](CCCCN)C(=O)N[C@H](C(=O)N[C@@H](CC(C)C)C(=O)N[C@@H](CC(C)C)C(=O)NCCCCC(NC(=O)[C@H](CC(C)C)NC(=O)[C@H](CC(C)C)NC(=O)[C@@H](NC(=O)[C@H](CCCCN)NC(=O)[C@@H](NC(=O)[C@H](CCCNC(=N)N)NC(=O)[C@H](CCCCN)NC(=O)[C@H](CC(C)C)NC(=O)[C@H](CC(C)C)NC(=O)CNC(=O)CCC)[C@@H](C)CC)[C@@H](C)O)C(N)=O)[C@@H](C)O)[C@@H](C)CC (stereo not given in full) (I: Butyryl-GLLKRIKTLL[ξK]-NH2 / II: Butyryl-GLLKRIKTLL; amide I:11-II:C) | 4 (≈ 10.2 µg/mL) | 8 (≈ 20.5 µg/mL) | 8 (≈ 20.5 µg/mL) | 4 (≈ 10.2 µg/mL) | 8 (≈ 20.5 µg/mL) | 27.61
5 | CCCCCCCCCC(=O)NCC(=O)N[C@@H](CC(C)C)C(=O)N[C@@H](CC(C)C)C(=O)N[C@@H](CCCCN)C(=O)N[C@@H](CCCNC(=N)N)C(=O)N[C@H](C(=O)N[C@@H](CCCCN)C(=O)N[C@H](C(=O)N[C@@H](CC(C)C)C(=O)N[C@@H](CC(C)C)C(=O)NCCCCC(NC(=O)[C@H](CC(C)C)NC(=O)[C@H](CC(C)C)NC(=O)[C@@H](NC(=O)[C@H](CCCCN)NC(=O)[C@@H](NC(=O)[C@H](CCCNC(=N)N)NC(=O)[C@H](CCCCN)NC(=O)[C@H](CC(C)C)NC(=O)[C@H](CC(C)C)NC(=O)CNC(=O)CCCCCCCCC)[C@@H](C)CC)[C@@H](C)O)C(N)=O)[C@@H](C)O)[C@@H](C)CC (stereo not given in full) (I: Decanoyl-GLLKRIKTLL[ξK]-NH2 / II: Decanoyl-GLLKRIKTLL; amide I:11-II:C) | 256 (≈ 698 µg/mL) | 256 (≈ 698 µg/mL) | 256 (≈ 698 µg/mL) | 64 (≈ 175 µg/mL) | 128 (≈ 349 µg/mL) | 26.56
6 | CC[C@H](C)[C@H](NC(=O)[C@H](CCCNC(=N)N)NC(=O)[C@H](CCCCN)NC(=O)[C@H](CC(C)C)NC(=O)[C@H](CC(C)C)NC(=O)CN)C(=O)N[C@@H](CCCCN)C(=O)N[C@H](C(=O)N[C@@H](CC(C)C)C(=O)N[C@@H](CC(C)C)C(=O)NCCCCC(NC(=O)[C@H](CC(C)C)NC(=O)[C@H](CC(C)C)NC(=O)[C@@H](NC(=O)[C@H](CCCCN)NC(=O)[C@@H](NC(=O)[C@H](CCCNC(=N)N)NC(=O)[C@H](CCCCN)NC(=O)[C@H](CC(C)C)NC(=O)[C@H](CC(C)C)NC(=O)CN)[C@@H](C)CC)[C@@H](C)O)C(N)=O)[C@@H](C)O (stereo not given in full) (I: H-GLLKRIKTLL[ξK]-NH2 / II: H-GLLKRIKTLL; amide I:11-II:C) | 4 (≈ 9.67 µg/mL) | 8 (≈ 19.3 µg/mL) | 16 (≈ 38.7 µg/mL) | 8 (≈ 19.3 µg/mL) | 8 (≈ 19.3 µg/mL) | 51.2
7 | CCCCCC(=O)NCC(=O)N[C@@H](CC(C)C)C(=O)N[C@@H](CC(C)C)C(=O)N[C@@H](CCCCN)C(=O)N[C@@H](CCCNC(=N)N)C(=O)N[C@H](C(=O)N[C@@H](CCCCN)C(=O)N[C@H](C(=O)N[C@@H](CC(C)C)C(=O)N[C@@H](CC(C)C)C(=O)NCCCCC(NC(=O)[C@H](CC(C)C)NC(=O)[C@H](CC(C)C)NC(=O)[C@@H](NC(=O)[C@H](CCCCN)NC(=O)[C@@H](NC(=O)[C@H](CCCNC(=N)N)NC(=O)[C@H](CCCCN)NC(=O)[C@H](CC(C)C)NC(=O)[C@H](CC(C)C)NC(=O)CNC(=O)CCCCC)[C@@H](C)CC)[C@@H](C)O)C(N)=O)[C@@H](C)O)[C@@H](C)CC (stereo not given in full) (I: Hexanoyl-GLLKRIKTLL[ξK]-NH2 / II: Hexanoyl-GLLKRIKTLL; amide I:11-II:C) | 8 (≈ 20.9 µg/mL) | 16 (≈ 41.8 µg/mL) | 8 (≈ 20.9 µg/mL) | 4 (≈ 10.5 µg/mL) | 8 (≈ 20.9 µg/mL) | 6.08
8 | CCCCCCCCCCCC(=O)NCC(=O)N[C@@H](CC(C)C)C(=O)N[C@@H](CC(C)C)C(=O)N[C@@H](CCCCN)C(=O)N[C@@H](CCCNC(=N)N)C(=O)N[C@H](C(=O)N[C@@H](CCCCN)C(=O)N[C@H](C(=O)N[C@@H](CC(C)C)C(=O)N[C@@H](CC(C)C)C(=O)NCCCCC(NC(=O)[C@H](CC(C)C)NC(=O)[C@H](CC(C)C)NC(=O)[C@@H](NC(=O)[C@H](CCCCN)NC(=O)[C@@H](NC(=O)[C@H](CCCNC(=N)N)NC(=O)[C@H](CCCCN)NC(=O)[C@H](CC(C)C)NC(=O)[C@H](CC(C)C)NC(=O)CNC(=O)CCCCCCCCCCC)[C@@H](C)CC)[C@@H](C)O)C(N)=O)[C@@H](C)O)[C@@H](C)CC (stereo not given in full) (I: Lauroyl-GLLKRIKTLL[ξK]-NH2 / II: Lauroyl-GLLKRIKTLL; amide I:11-II:C) | 256 (≈ 712 µg/mL) | 256 (≈ 712 µg/mL) | 256 (≈ 712 µg/mL) | 128 (≈ 356 µg/mL) | 256 (≈ 712 µg/mL) | 15.16
9 | CCCCCCCC(=O)NCC(=O)N[C@@H](CC(C)C)C(=O)N[C@@H](CC(C)C)C(=O)N[C@@H](CCCCN)C(=O)N[C@@H](CCCNC(=N)N)C(=O)N[C@H](C(=O)N[C@@H](CCCCN)C(=O)N[C@H](C(=O)N[C@@H](CC(C)C)C(=O)N[C@@H](CC(C)C)C(=O)NCCCCC(NC(=O)[C@H](CC(C)C)NC(=O)[C@H](CC(C)C)NC(=O)[C@@H](NC(=O)[C@H](CCCCN)NC(=O)[C@@H](NC(=O)[C@H](CCCNC(=N)N)NC(=O)[C@H](CCCCN)NC(=O)[C@H](CC(C)C)NC(=O)[C@H](CC(C)C)NC(=O)CNC(=O)CCCCCCC)[C@@H](C)CC)[C@@H](C)O)C(N)=O)[C@@H](C)O)[C@@H](C)CC (stereo not given in full) (I: Octanoyl-GLLKRIKTLL[ξK]-NH2 / II: Octanoyl-GLLKRIKTLL; amide I:11-II:C) | 32 (≈ 85.5 µg/mL) | 128 (≈ 342 µg/mL) | 64 (≈ 171 µg/mL) | 16 (≈ 42.7 µg/mL) | 32 (≈ 85.5 µg/mL) | 5.67
10 | CCCCCCCCCCCC(=O)NCC(=O)N[C@@H](CC(C)C)C(=O)N[C@@H](CC(C)C)C(=O)N[C@@H](CCCCN)C(=O)N[C@@H](CCCNC(=N)N)C(=O)N[C@H](C(=O)N[C@@H](CCCCN)C(=O)N[C@H](C(=O)N[C@@H](CC(C)C)C(=O)N[C@@H](CC(C)C)C(N)=O)[C@@H](C)O)[C@@H](C)CC (Lauroyl-GLLKRIKTLL-NH2) | 16 (≈ 21.4 µg/mL) | 32 (≈ 42.7 µg/mL) | 16 (≈ 21.4 µg/mL) | 64 (≈ 85.5 µg/mL) | 128 (≈ 171 µg/mL) | 11.38
11 | CCCCCCCC(=O)NCC(=O)N[C@@H](CC(C)C)C(=O)N[C@@H](CC(C)C)C(=O)N[C@@H](CCCCN)C(=O)N[C@@H](CCCNC(=N)N)C(=O)N[C@H](C(=O)N[C@@H](CCCCN)C(=O)N[C@H](C(=O)N[C@@H](CC(C)C)C(=O)N[C@@H](CC(C)C)C(N)=O)[C@@H](C)O)[C@@H](C)CC (Octanoyl-GLLKRIKTLL-NH2) | 8 (≈ 10.2 µg/mL) | 8 (≈ 10.2 µg/mL) | 8 (≈ 10.2 µg/mL) | 16 (≈ 20.5 µg/mL) | 16 (≈ 20.5 µg/mL) | 210.63
12 | I: Butyryl-GLLKRIKTLL[ξK][ξK]-NH2 / II: Butyryl-GLLKRIKTLL[ξK] / III: Butyryl-GLLKRIKTLL / IV: Butyryl-GLLKRIKTLL (amide I:11-IV:C, I:12-II:C, II:11-III:C) | 16 | 8 | 16 | 8 | 32 | 1.06
13 | I: Decanoyl-GLLKRIKTLL[ξK][ξK]-NH2 / II: Decanoyl-GLLKRIKTLL[ξK] / III: Decanoyl-GLLKRIKTLL / IV: Decanoyl-GLLKRIKTLL (amide I:11-IV:C, I:12-II:C, II:11-III:C) | 256 | 256 | 256 | 256 | 256 | 12.51
14 | I: H-GLLKRIKTLL[ξK][ξK]-NH2 / II: H-GLLKRIKTLL[ξK] / III: H-GLLKRIKTLL / IV: H-GLLKRIKTLL (amide I:11-IV:C, I:12-II:C, II:11-III:C) | 8 | 8 | 8 | 8 | 16 | 1.31
15 | I: Hexanoyl-GLLKRIKTLL[ξK][ξK]-NH2 / II: Hexanoyl-GLLKRIKTLL[ξK] / III: Hexanoyl-GLLKRIKTLL / IV: Hexanoyl-GLLKRIKTLL (amide I:11-IV:C, I:12-II:C, II:11-III:C) | 32 | 32 | 32 | 32 | 32 | 10.91
